Molecular target: T1, 14-3-3ζ/RND3 peptide (Homo sapiens, UniProt P63104)
T1 construct: made in house; host or cells: NiCo21 (DE3) E. coli
Experiment: FA peptide screen, 14-3-3ζ titration to client peptide and compound: RND3
Assay type: binding
Conditions: 250 μM compound, 100 nM peptide; +1 Cys
Protocol: Since the hub protein 14-3-3 binds to hundreds of phosphoprotein partners, selectivity of PPI stabilization is a major challenge. The interplay of chemical reactivity, and the topology and functionality of the composite binding pocket shaped by 14-3-3 and Tau potentially provide entries towards selective stabilization. […] Here, 14-3-3ζ was titrated to a constant concentration of client peptide (100 nM) and compound (250 μM) to determine the SF250μM values for the particular 14-3-3 PPI. A variety of 14-3-3 binding proteins was represented in this client panel whereby the size and hydrophobicity of the +1 amino acid were varied. […]
chromatography (HisTrap high performance cartridges, Cytiva). Typically two 5 mL columns were used for a 2 L culture in which the lysate was loaded on the column, washed with 10 CV wash buffer (50 mM Hepes, pH 8.0, 300 mM NaCl, 25 mM imidazole, 2 mM βME), and eluted with several fractions (2-4 CV) of elution buffer (50 mM Hepes, pH 8.0, 300 mM NaCl, 250 mM imidazole, 2 mM βME). […] Dialyzed protein was concentrated to ∼40 mg/mL, analyzed by Q -Tof LC/MS, and aliquots were flash -frozen for storage at −80 °C. […] Fractions containing the 14 -3-3 protein were pooled and concentrated to ∼60 mg/mL, analyzed Q -Tof LC/MS, and aliquots were flash -frozen for storage at −80°C.
Fluorescence Anisotropy – compound titration […]

T1 sequence (P63104 whole entry, other chains not shown): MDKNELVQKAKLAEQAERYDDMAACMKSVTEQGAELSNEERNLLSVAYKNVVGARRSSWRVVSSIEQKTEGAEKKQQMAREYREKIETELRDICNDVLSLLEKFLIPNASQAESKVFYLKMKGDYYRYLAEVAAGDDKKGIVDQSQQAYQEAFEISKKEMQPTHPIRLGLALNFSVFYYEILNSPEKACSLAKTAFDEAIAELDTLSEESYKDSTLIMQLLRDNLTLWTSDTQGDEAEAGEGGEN

CCc1ccc(-c2nccn2-c2ccc(C=O)c(Br)c2)cc1 [Compound 18]
stabilization of 14-3-3/RND3 peptide (in words): did not show significant stabilizing activity

— paper PMC11892739, “Site-specific molecular glues for the 14-3-3/Tau pS214 protein–protein interaction via reversible covalent imine tethering” (RSC Medicinal Chemistry, 2025)
